Reference: patent US20020090341A1, “Method” (NYCOMED IMAGING AS, priority 1997, published 2002)
Read-outs that look alike come from different tables or passages of the source.

Test system: regionally ischemic heart
Details: for Myocardial enhancement: normal myocardium
Experimental: Sprague-Dawley rats (250-300 g) were anaesthetised with 50 mg/kg sodium pentobarbital and mechanically ventilated after tracheostomy. For bolus injection of the contrast agent, a catheter was placed in the femoral vein. In order to produce regional ischemia, left thoracotomy was performed followed by occlusion of the anterior branch of the left coronary artery. The potential of various doses of MnDPDP in demarcating regional ischemia was determined. Four groups of animals were designed, each group (n=7-8 rats) received one bolus dose (1 ml/kg) of MnDPDP (0.005, 0.010, 0.020, or 0.040 mmol/kg). MR imaging was performed between 15-20 mins after acute coronary occlusion.
ECG-gated inversion recovery echoplanar images were acquired using a GE Omega 2.0 T system and a home-built 5.6 cm birdcage imaging coil. A blipped EPI of 64×64 points to define a […] (FOV) of 40×40 mm was used. TE was set to 10 msec by acquiring an asymmetric echo. Inversion recovery was accomplished using a composite non-selective inversion pulse which was carefully optimized prior to administration of the contrast medium. Shortly after the occlusion of the coronary vessel (15-25 mins), IR EP imaging was used to monitor bolus passage of MnDPDP through the regionally ischemic heart. Fully relaxed T1-sensitive inversion recovery EP images (TR=5 s) were acquired in a set of 16 images. Then, 32 inversion-recovery echoplanar images every 2 secs were obtained with inversion time of 700 msecs (to nullify myocardial signal) to monitor the dynamic T1 changes in myocardial signal intensity during the passage of the contrast medium. Changes in myocardial signal as a function of time were plotted. ROIs were obtained from non-ischemic and ischemic myocardium as well as from LV chamber blood. ROIs were determined on images acquired post-contrast injection, where the ischemic region is clearly defined. Alterations in signal intensity were referred to that of fully relaxed intensity (=100%).
At the conclusion of the imaging protocol, the presence of coronary occlusion and acute ischemia was confirmed at postmortem by injecting 0.5 ml/kg phthalocyanine blue dye intravenously. Blue dye was then allowed to circulate for 3 mins before the heart was excised.

`Cc1ncc(COP(=O)(O)O)c(CN(CCN(CC(=O)[O-])Cc2c(COP(=O)(O)O)cnc(C)c2O)CC(=O)[O-])c1O.[Mn+2]` [MnDPDP, manganese (II) chelate of N,N′-bis-(pyridoxal-5-phosphate)-ethylenediamine-N,N′-diacetic acid] was tested, and the “delineation of the ischemic region” value (0.005 mmol/kg) was “insufficient to provide clear delineation of the ischemic region”, the “delineation of the ischemic region” value (0.010, 0.020, and 0.040 mmol/kg) was “the ischemic region was identified as a region of very low signal” and the Myocardial enhancement (5 micromole/kg bolus) was 23±2 % of fully relaxed images. For the same compound, the Myocardial enhancement (10 micromole/kg bolus) was 28±2 % of fully relaxed images, the Myocardial enhancement (20 micromole/kg bolus) was 34±5 % of fully relaxed images and the Myocardial enhancement (40 micromole/kg bolus) was 48±4 % of fully relaxed images.
